Holding throughout (type): cell-based
In assay [1] the test system is H358 cells (ATCC CRL-5807). The experiment in a line: Cell viability assay 1 (CellTiter-Glo), H358 cells. To be noted: Homo sapiens, NCI-H358, 48 h, first value of the cell, read-out: Cell Viability H358 (concentration that decreases cell viability by 50%). The method, boiled down: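 H358 cells were grown in RPMI-1640 with 10% FCS and 2 mM L-glutamine, plated at 5000 cells/well and allowed to adhere overnight. Compound was added in 0.5% DMSO final for 48 h at 37° C. Viability was read by CellTiter-Glo luminescence, with the 50% viability-reducing concentration derived from dose-response curves.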
(In ATP-based viability assays light output follows the ATP content of the culture.)

For assay [2], the system named is DLD1 cells (ATCC CCL-221). The assay is described as follows: Cell viability assay 1 (CellTiter-Glo), DLD1 cells. To be noted: Homo sapiens, DLD-1 cells, 48 h, second value of the cell, read-out: Cell Viability DLD-1 (concentration that decreases cell viability by 50%). A digest of the protocol:
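DLD1 cells grown in RPMI-1640 with 10% FCS, 2 mM L-glutamine, 37 °C, 5% CO2, plated overnight then exposed to compound (0.5% DMSO) for 48 h. Viability by CellTiter-Glo luminescence; value is concentration reducing viability by 50% from dose-response curves.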

The target in assay [3] is T1, NRASQ61H interaction with PI3K, CRAF, RALGDS (Homo sapiens, UniProt P01111, Q61H).
T1 construct: expressed in transfected cells; host or cells: HEK293T
The experiment in a line: BRET2 cell assay, NRAS Q61H-effector interaction. The conditions noted are these: HEK293T cells, 5, 10 and 20 μM, 20 h. From the text:
(§1) The BRET ratio corresponds to the light emitted by the GFP2 acceptor constructs (515 nm±30) upon addition of Coelenterazine 400a divided by the light emitted by the RLuc8 donor constructs (410 nm±80). The normalized BRET ratio is the BRET ratio normalized to the DMSO negative and calculated as follows: (BRETcompound/BRETDMSO)×100, where BRETcompound corresponds to the BRET ratio for the compound-treated cells, BRETDMSO to the DMSO-treated cells. Each experiment was repeated at least three times. Statistical analyses were performed using a one-way ANOVA followed by Dunnett's post-tests (*P<0.05, **P<0.01, ***P<0.001, ****P<0.0001). Where error bars are presented, they correspond to mean values±SD of biological repeats (a-c).
(§2) HEK293T cells were transfected 24 hr with plasmids expressing the NRAS Q61H […] and HRAS G12V (B, D) biosensors together with the indicated RBDs of PI3K, CRAF and RALGDS (A, B) or full-length CRAF. […]
(§3) 650,000 HEK293T were seeded in each well of a 6 well plate. […] The final concentrations in the cells were 0, 5, 10 and 20 µM (therefore the intermediate 10× concentrations were 0, 50, 100 and 200 μM. 10 μL of 10× compounds were added in each well of the 96 well plate to 0, 5, 10 and 20 µM final concentrations (with final 0.2% DMSO each). Quadruplicates were performed for each point. Cells were left for an additional 20 hours at 37° C. before the BRET2 signal reading directly after addition of Coelenterazine 400a substrate (10 µM final) to cells (Cayman Chemicals, cat #16157). BRET2 reading was carried out on an Envision instrument (2103 Multilabel Reader, PerkinElmer) with the BRET2 Dual Emission optical module (515 nm±30 and 410 nm±80; PerkinElmer).
(§4) The ability of Example compound 56 to inhibit RAS-effector PPI using the above cell-based RAS-effector BRET2 assay was investigated. […] We determined the effect of compound 56 (labelled Abd-7) on the interaction of KRAS^G12D and with PI3Kα and PI3Kγ, CRAF RAS-binding domain (RBD) and RALGDS RAS-associating domain (RA) compared with the low affinity Reference Compound Abd-2 FIG. 1a). […]
Background: Bioluminescence resonance energy transfer reports proximity on the nanometre scale.

For assay [4], the target named is T2, HRASG12V interaction with PI3K, CRAF, RALGDS (Homo sapiens, UniProt P01112, G12V).
T2 construct: expressed in transfected cells; host or cells: HEK293T
The assay is described as follows: BRET2 cell assay, HRAS G12V-effector interaction. The conditions noted are these: HEK293T cells, 5, 10 and 20 μM, 20 h.
From the text: as §1, §2, §3, §4

“Also recorded” adds a separate entry of the source.

In the case of `COc1cc(-c2cccc3c2OCCO3)ccc1Nc1cccc(CN(C)C)c1.O=CO` [compound 72, [4-(2,3-Dihydro-benzo[1,4]dioxin-5-yl)-2-methoxy-phenyl]-(3-dimethylaminomethyl-phenyl)-amine formate salt], the IC50 in assay [1] turned out to be 15.3 µM; in assay [2], 15.4 µM. Besides, in assay [3] (formate salt), the “Effect on BRET signal, NRAS Q61H/effector interactions” value is on record as “inhibits; also recorded: disturbs the BRET2 signal in dose response manner”. Besides, the “Effect on BRET signal, HRAS G12V/effector interactions” value in assay [4] (formate salt) is “inhibits; also recorded: disturbs the BRET2 signal in dose response manner”.
As for `COc1nc(-c2cccc3c2OCCO3)ccc1Nc1ccc(CN(C)C)cc1` [compound 56, [6-(2,3-Dihydro-benzo[1,4]dioxin-5-yl)-2-methoxy-pyridin-3-yl]-(4-dimethylaminomethyl-phenyl)-amine], the IC50 came to 12 µM in assay [1] and 8 µM in assay [2]. Further, the “Effect on BRET signal, NRAS Q61H/effector interactions” value in assay [3] is on record as “interferes with all mutant RAS family member PPIs”. For the same compound, the “Effect on BRET signal, HRAS G12V/effector interactions” value in assay [4] is on record as “interferes with all mutant RAS family member PPIs”.

(Values after US12024506B2, “Compounds” (Oxford University Innovation Limited, priority 2018, dated 2024).)
